Source: patent US10543227B2, “Hair growth composition” (RIKEN, priority 2015, dated 2020)
Where “and” joins values, the source holds several entries; their conditions need not be identical. Equal entries are not always repeated. Where two headings read alike, the source gives them in different places.

Columns and labels:
[1] = system: hair-shaved back sites of C3H/HeN mice; experiment: Telogen phase model, Test 1: hair growth at hair-shaved back sites; format: in vivo
Procedure: (§1) C3H/HeN mice (Charles River Japan (Kanagawa, Japan)) of 6 weeks old, the hair cycle of which repeatedly proceeds anagen phase, catagen phase and telogen phase in this order, were raised for a week for acclimatization. At the age of 7 weeks (the telogen phase is started at the age), hairs on the back were shaved off by an electric clipper and a shaver. After the mice were raised overnight, application of a test solution (200 μL per site) to the hair-shaved site was initiated.
(§2) In both of Test 1 and Test 2, each test solution was applied to the hair-shaved back sites of 5-12 mice per group, daily at a frequency of once a day. […] Alternatively, where needed, the hair growth effects were evaluated by calculating % hair-growth areas.
(§3) The evaluation results of Test 1 and Test 2 are shown in Table 1 and Table 2, respectively. Evaluation results were shown by scores based on the following criteria: when the hair-growth area calculated was 0% or more and less than 10%, score 1 was given; when the hair-growth area calculated was 10% or more and less than 25%, score 2 was given, when the hair-growth area calculated was 25% or more and less than 50%, score 3 was given; when the hair-growth area calculated was 50% or more and less than 75%, score 4 was given; and when the hair-growth area calculated was 75% or more, score 5 was given.

[2] = system: hair-shaved back sites of C3H/HeN mice; experiment: Telogen phase model, Test 2: hair growth at hair-shaved back sites; format: in vivo
Procedure: as §1, §2, §3

[3] = Procedure: (§4) Each test drug was applied to hair-shaved back sites (in an amount of 200 μL per site) of 5-6 animals per group, daily at a frequency of once a day. At 10 minutes and 30 minutes after the application on Day 20, average body surface temperature (° C.) was measured. […] Body surface temperature (° C.) was measured by photographing a hair-shaved site and its periphery using an infrared thermography camera (Thermoshot F30S (NEC/Avio, Tokyo, Japan)). The average body surface temperature per area was calculated using InfRec Analyzer NS9500 Standard (NEC/Avio, Tokyo, Japan).
These animals were subjected to drawing blood from the hearts on the final week for biochemical examination. Each blood was allowed to stand still on ice for 30 minutes and centrifuged twice at 10,000 rpm for 15 minutes (at 4° C.). The supernatants (i.e., sera) were transferred to new containers and stored in a freezer (at −80° C.). The sera were analyzed using a clinical chemistry analyzer for animal (FUJI DRI-CHEM 3500V) and special slides to obtain the values of [GPT (glutamate-pyruvate transaminase), GOT (glutamate oxaloacetate transaminase), GGT (γ-glutamyl transferase), LDH (lactate dehydrogenase), CHE (cholinesterase), CPK (creatine phosphokinase), ALB (albumin), TP (total protein), TCHO (total cholesterol), and TG (triglyceride)].

mouse skin tissue [4] = experiment: Histological examination of skin tissue, anagen phase model (Example 4); format: in vivo, C3H/HeN mice; settings: Positive control 5% MXD; after 24 days application; n = 8
Procedure: Paraffin sections were prepared, stained with hematoxylin/eosin (HE), and microscopically observed. Hair root density and anagen phase/telogen phase ratio were evaluated.

mouse skin tissue [5] = settings: positive control, 5% MXD
Procedure: Specifically, the skin tissue was taken and fixed in 10% neutral buffered formalin. Paraffin sections thereof were prepared, stained with HE, and microscopically observed.

[6] = Average body surface temperature by infrared thermography (Example 2); settings: Sodium thiosulfate 10% (w/v)
Procedure: as §4

[7] = Minoxidil 1% (w/v), Day 54 after initiation of application
[8] = Minoxidil 1%, serum, final week, N=5
[9] = Sodium thiosulfate 10% (w/v), Day 69 after initiation of application
[10] = Sodium thiosulfate 10%, serum, final week, N=5

With `Nc1cc(N2CCCCC2)nc(N)[n+]1[O-]` [Minoxidil, minoxidil, reference compound] the hair growth score ([1]; Minoxidil 1% (w/v), Day 26 after initiation of application) was 0, the hair growth score ([1]; Minoxidil 1% (w/v), Day 32 after initiation of application) was 0 and the hair growth score ([1]; Minoxidil 1% (w/v), Day 40 after initiation of application) was 0. The hair growth score ([1]; Minoxidil 1% (w/v), Day 47 after initiation of application) was 0, the hair growth score [1, 7] was 0 and the hair growth score ([1]; Minoxidil 1% (w/v), Day 62 after initiation of application) was 0. It also gave a hair growth score ([1]; Minoxidil 1% (w/v), Day 69 after initiation of application) of 0, a hair growth score ([1]; Minoxidil 1% (w/v), Day 76 after initiation of application) of 0 and a hair growth score ([1]; Minoxidil 1% (w/v), Day 83 after initiation of application) of 0. It also gave a hair growth score ([1]; Minoxidil 1% (w/v), Day 90 after initiation of application) of 0, a hair growth score ([2]; Minoxidil 1% (w/v), Day 27 after initiation of application) of 0 and a hair growth score ([2]; Minoxidil 1% (w/v), Day 34 after initiation of application) of 0. The hair growth score ([2]; Minoxidil 1% (w/v), Day 41 after initiation of application) was 0, the hair growth score ([2]; Minoxidil 1% (w/v), Day 48 after initiation of application) was 0 and the hair growth score [2, 7] was 0. The hair growth score ([2]; Minoxidil 1% (w/v), Day 61 after initiation of application) was 0, the CHE [3, 8] was 16.6 ± 1.5 U/l and the TG [3, 8] was 294.0 ± 44.1 mg/dL. For the same compound, the TP [3, 8] was 4.7 ± 0.5 g/dL, the ALB ([3]; mouse, in vivo) was 2.2 ± 0.1 g/dL and the CPK ([3]; mouse, in vivo) was 321.6 ± 231.5 U/l. For the same compound, the GGT ([3]; mouse, in vivo) was 1.0 ± 0.0 U/l, the “GOT (AST)” value ([3]; mouse, in vivo) was 66.8 ± 40.2 U/l and the LDH ([3]; mouse, in vivo) was 237.8 ± 101.6 U/l. The TCHO ([3]; mouse, in vivo) was 167.2 ± 19.3 mg/dL, the Anagen phase/telogen phase (mouse skin tissue [4]) was 0.11 ± 0.05 and the Hair root density (mouse skin tissue [4]) was 2.04 ± 0.32 /mm. For the same compound, the Subcutaneous tissue (mouse skin tissue [4]) was 38.4 ± 9 µm and the “tissue abnormality (HE-stained skin sections)” value (mouse skin tissue [5]) was “no individuals having tissue abnormality were found”.

In the case of `O=S([O-])([O-])=S.[Na+].[Na+]` [Sodium thiosulfate, sodium thiosulfate], the hair growth score ([1]; Sodium thiosulfate 1% (w/v), Day 26 after initiation of application) is reported as 0, the hair growth score ([1]; Sodium thiosulfate 1% (w/v), Day 32 after initiation of application) is reported as 0 and the hair growth score ([1]; Sodium thiosulfate 1% (w/v), Day 40 after initiation of application) is reported as 0. It also gave a hair growth score ([1]; Sodium thiosulfate 1% (w/v), Day 47 after initiation of application) of 0, a hair growth score ([1]; Sodium thiosulfate 1% (w/v), Day 54 after initiation of application) of 0 and a hair growth score ([1]; Sodium thiosulfate 1% (w/v), Day 62 after initiation of application) of 0. The hair growth score ([1]; Sodium thiosulfate 1% (w/v), Day 69 after initiation of application) was 0, the hair growth score ([1]; Sodium thiosulfate 1% (w/v), Day 76 after initiation of application) was 0 and the hair growth score ([1]; Sodium thiosulfate 1% (w/v), Day 83 after initiation of application) was 0. It also gave a hair growth score ([1]; Sodium thiosulfate 1% (w/v), Day 90 after initiation of application) of 0, a hair growth score ([1]; Sodium thiosulfate 2% (w/v), Day 26 after initiation of application) of 0 and a hair growth score ([1]; Sodium thiosulfate 2% (w/v), Day 32 after initiation of application) of 0. For the same compound, the hair growth score ([1]; Sodium thiosulfate 2% (w/v), Day 40 after initiation of application) was 0, the hair growth score ([1]; Sodium thiosulfate 2% (w/v), Day 47 after initiation of application) was 0 and the hair growth score ([1]; Sodium thiosulfate 2% (w/v), Day 54 after initiation of application) was 0. It also gave a hair growth score ([1]; Sodium thiosulfate 2% (w/v), Day 62 after initiation of application) of 0, a hair growth score ([1]; Sodium thiosulfate 2% (w/v), Day 69 after initiation of application) of 0 and a hair growth score ([1]; Sodium thiosulfate 2% (w/v), Day 76 after initiation of application) of 0. The hair growth score ([1]; Sodium thiosulfate 2% (w/v), Day 83 after initiation of application) was 0, the hair growth score ([1]; Sodium thiosulfate 2% (w/v), Day 90 after initiation of application) was 0 and the hair growth score ([1]; Sodium thiosulfate 2% (w/v), Day 97 after initiation of application) was 0. For the same compound, the hair growth score ([1]; Sodium thiosulfate 4% (w/v), Day 26 after initiation of application) was 0, the hair growth score ([1]; Sodium thiosulfate 4% (w/v), Day 32 after initiation of application) was 0 and the hair growth score ([1]; Sodium thiosulfate 4% (w/v), Day 40 after initiation of application) was 0. It also gave a hair growth score ([1]; Sodium thiosulfate 4% (w/v), Day 47 after initiation of application) of 0, a hair growth score ([1]; Sodium thiosulfate 4% (w/v), Day 54 after initiation of application) of 0 and a hair growth score ([1]; Sodium thiosulfate 10% (w/v), Day 26 after initiation of application) of 0. The hair growth score ([1]; Sodium thiosulfate 10% (w/v), Day 32 after initiation of application) was 0, the hair growth score ([1]; Sodium thiosulfate 10% (w/v), Day 40 after initiation of application) was 0 and the hair growth score [1, 9] was 2 (when the hair-growth area calculated was 10% or more and less than 25%, score 2 was given) and 3 (when the hair-growth area calculated was 25% or more and less than 50%, score 3 was given). The “time point when hairs start growing (Kaplan-Meier curves)” value ([1]; as the concentration of sodium thiosulfate increases, Tests 1 and 2, FIGS. 2 and 3) was “new hairs tend to start growing from the earlier stage”, the “start of new hair growth and hair-growth area compared to the negative control” value ([1]; sodium thiosulfate alone, 4% (w/v) or more) was “started growing at early stage after the application” and the hair growth score ([2]; Sodium thiosulfate 10% (w/v), Day 27 after initiation of application) was 0. For the same compound, the hair growth score ([2]; Sodium thiosulfate 10% (w/v), Day 34 after initiation of application) was 0, the hair growth score [2, 9] was 2 (when the hair-growth area calculated was 10% or more and less than 25%, score 2 was given) and 4 (when the hair-growth area calculated was 50% or more and less than 75%, score 4 was given) and 3 (when the hair-growth area calculated was 25% or more and less than 50%, score 3 was given) and the hair growth score ([2]; Sodium thiosulfate 10% (w/v), Day 90 after initiation of application) was 3 (when the hair-growth area calculated was 25% or more and less than 50%, score 3 was given) and 5 (when the hair-growth area calculated was 75% or more, score 5 was given) and 4 (when the hair-growth area calculated was 50% or more and less than 75%, score 4 was given). For the same compound, the “average body surface temperature” value ([6]; 10 minutes after the application on Day 20) was 36.6 °C and 36.3 °C and 35.8 °C and 35.5 °C and 36.7 °C, the “average body surface temperature” value ([6]; 30 minutes after the application on Day 20) was 37.1 °C and 36.6 °C and 37 °C and 37.2 °C and the ALB [3, 10] was 2.2 ± 0.1 g/dL. For the same compound, the CHE [3, 10] was 19.8 ± 3.1 U/l, the CPK [3, 10] was 608.4 ± 642.5 U/l and the GGT [3, 10] was 1.0 ± 0.0 U/l. For the same compound, the “GOT (AST)” value [3, 10] was 83.2 ± 46.3 U/l, the “GPT (ALT)” value [3, 10] was 20.8 ± 2.3 U/l and the LDH [3, 10] was 277.4 ± 142.6 U/l. The TCHO [3, 10] was 155.0 ± 10.1 mg/dL, the TG [3, 10] was 296.8 ± 95.5 mg/dL and the TP [3, 10] was 4.8 ± 0.3 g/dL.
